According to paper PMC11130262, “Ebselen analogues delay disease onset and its course in fALS by on-target SOD-1 engagement” (Scientific Reports, 2024):
Like-named read-outs stand apart in the source and are kept apart here.

Key:
[1] = tested on: Neuro2a cells with SOD1^G93A expression; test: Proteostasis immunoblotting in cultured Neuro2a cells expressing G93A SOD1; assay type: cell-based, mouse; conditions: 10 µM, 24 h; for poly-ubiquitinated proteins: Fig. 6J
Experimental: Neuro2a cells were seeded on 6 well plate (#140685 Corning Costar) at 5.0 × 10^4/well, and transfected with human wild-type or G93A SOD1 expressing plasmid[25] using Lipofectamine 2000 (Thermo Fisher Scientific) according to the manufacturer’s instructions.

[2] = tested on: H4 cells expressing G93A SOD1; test: ATP bioluminescent (CellTiter-Glo) cell viability assay, H4 cells expressing G93A SOD1; assay type: cell-based, human; conditions: for cell survival: 10 and 25 μM, 24 h, individual drugs; for concentration up to which high level of cells viability is seen: dose-response 2.5 to 100 μM
[3] = tested on: H4 cells expressing A4V SOD1; test: ATP bioluminescent (CellTiter-Glo) cell viability assay, H4 cells expressing A4V SOD1; assay type: cell-based, human; conditions: for cell survival: 10 and 25 μM, 24 h, individual drugs
Experimental: (§1) Human H4 neuroglioma cells (HTB-148, ATCC) and mouse Neuro2a neuroblastoma cells (CCL-131, ATCC) were cultured in Dulbecco’s modified Eagle’s medium (DMEM) (Gibco) supplemented with 10%v/v Foetal Bovine Serum (FBS) at 37 °C under humidified atmosphere with 5% CO2. Transfection of the Venus-BiFC SOD1 plasmids to H4 cells was carried out using Turbofect™ transfection agent (#R0533, Thermo Fisher Scientific) following protocols from the manufacture. Briefly, 1.5 × 10^5 H4 cells suspended in 1 mL medium were seeded on a well of 4 compartment-glass bottom dish (Cellview™, Greiner Bio-one) and grown at 37 °C for 24 h. 0.25 µg Venus-BiFC plasmids of wild-type or A4V SOD1 homodimer comprised of equimolar concentrations of VN-SOD1 and SOD1-VC were mixed with 1 µL Turbofect in 0.1 mL FBS-free DMEM and incubated at room temperature for 15 min before adding to seeded H4 cells. […] To determine cell viability, 2.5 × 10^4 cells were seeded in 0.2 mL media in a 96-well plate (Corning Costar, #10695951, Thermo Fisher Scientific). Cell viability was measured either using MTS assay (CellTiter 96, #G3580, Promega) on a plate-reader spectrometer (SpectraMax Plus 384, Molecular Devices) or using CellTiter-GloR 2.0 Assay (#G9241, Promega) following the manufacturer’s protocol. […] BMG POLARstar Omega microplate reader was used for luminescence measurement. To avoid the interference of the antioxidant compounds (ebselen and its analogues) with the luciferase activity in the presence of oxygen, the drugs containing media was replaced with a fresh medium prior to the addition of the reagent.

G93A SOD1 = target: T1, G93A SOD1 (Homo sapiens, UniProt P00441, G94A); test: Bimolecular fluorescence complementation (BiFC) assay of SOD1 aggregation, G93A; assay type: cell-based
T1 construct: expressed in transfected cells; host or cells: human H4 neuroglioma cells (HTB-148, ATCC)
Experimental: Human H4 neuroglioma cells cultured in glass-bottom dishes were transfected with Venus fragments as described above using Turbofect transfection reagent. Transfected H4 cells were stained with 5 µM DRAQ5 nuclear stain (ab108410, Abcam) and incubated at 37 °C for 5 min prior to cell imaging. Live cell imaging was performed on cells maintained in a humidified incubator (37 °C, 5% CO2) using a Zeiss LSM 710 microscope. […]

H46R SOD1 = target: T2, H46R SOD1 (Homo sapiens, UniProt P00441, H47R); test: Bimolecular fluorescence complementation (BiFC) assay of SOD1 aggregation, H46R; assay type: cell-based; conditions: 50 µM
T2 construct: expressed in transfected cells; host or cells: human H4 neuroglioma cells (HTB-148, ATCC)
Experimental: (§2) Human H4 neuroglioma cells cultured in glass-bottom dishes were transfected with Venus fragments as described above using Turbofect transfection reagent. Transfected H4 cells were stained with 5 µM DRAQ5 nuclear stain (ab108410, Abcam) and incubated at 37 °C for 5 min prior to cell imaging. Live cell imaging was performed on cells maintained in a humidified incubator (37 °C, 5% CO2) using a Zeiss LSM 710 microscope. To obtain large field of view for analysis, images were collected using a 4 × 4 tiles with a 20 × Fluar 0.8 NA (Carl Zeiss, Jena, Germany) at 1024 × 1024 pixels. Excitation of Venus fluorescent protein (VFP) was carried out with 514-nm argon laser while DRAQ5 was excited at 633 nm with a HeNe laser. Emitted light was collected through appropriate filters to eliminate any spill-overs. Image acquisition and processing were carried out using ZEN 2.1 software (Carl Zeiss, Jena Germany).
Following the drug treatment (24 h) of transfected cells and nuclear staining with DRAQ5 for 5 min the tiled images were generated as described above. […] Fiji software[52] was used to determine minimum and maximum diameter of cells and inclusions within the cells in pixel units. […]

D90A SOD1 = target: T3, D90A SOD1 (Homo sapiens, UniProt P00441, D91A); test: Bimolecular fluorescence complementation (BiFC) assay of SOD1 aggregation, D90A; assay type: cell-based; conditions: for reduction of aggregates / aggregation propensity: D90A, 50 µM
T3 construct: expressed in transfected cells; host or cells: human H4 neuroglioma cells (HTB-148, ATCC)
Experimental: as §2
Following the drug treatment (24 h) of transfected cells and nuclear staining with DRAQ5 for 5 min the tiled images were generated as described above. […] Fiji software[52] was used to determine minimum and maximum diameter of cells and inclusions within the cells in pixel units. These cell/inclusion sizes were then used to set parameters in Cell Profiler[53]. The pipeline was adapted from the Speckle Counter example available from CellProfiler (https://cellprofiler.org/) for the batch analysis of the cells with or without inclusions. The low fluorescent cells missed by the cell profiler were adjusted by manual counting.

[4] = tested on: mouse neuronal N2a cells expressing G93A SOD1; set-up: method as in PMID 32862101; conditions: N2a cells expressing G93A SOD1, shown again in Fig. 1B; cited from earlier work
[5] = tested on: spinal cords of SOD1^G93A mice; assay type: in vivo, mouse
Experimental: Immunoblotting and immunofluorescence analyses were performed as described previously. For the analysis of SOD1 oligomers with aberrant disulfide bonds (SOD1 S–S oligomers), sodium dodecyl sulfate–polyacrylamide gel electrophoresis was performed under non-reducing conditions. […] (Medimabs, Montreal, Quebec, Canada) was used at a 1:250 dilution. Other primary antibodies used for the study were anti-β-actin (1:5,000, #A5441, RRID: AB_476744, Sigma-Aldrich), anti-p62 (1:1,000 for immunoblotting, 1:500 for immunohistochemistry, #PM045, RRID: AB_2169714, Medical and Biological Laboratories (MBL), Nagoya, Japan), anti-polyubiquitin (1:1,000 for immunoblotting, 1:500 for immunohistochemistry, #D058‐3, RRID: AB_592937, MBL), and anti-choline acetyltransferase (ChAT) ((1:100 for immunohistochemistry, #AB144P, RRID:AB_2079751, EMD Millipore Corp., Billerica, MA, USA). Rabbit anti-human SOD1 antibody was raised in our laboratory against a recombinant human SOD1 peptide (aa 24–37) and purified with protein A[66].

[6] = tested on: SOD1^G93A transgenic mice; test: Survival and behavioral experiments of SOD1G93A transgenic mice, chronic oral administration; assay type: in vivo, mouse; conditions: for disease onset (mean ± SD): female SOD1G93A mice, 0.016% w/w in powder food (estimated dose 24 mg/kg) from 70 days of age, controls 104.4 ± 8.7 (MR6-8-2) and 106.4 ± 9.0 (MR6-26-2)
Experimental: Transgenic mice expressing human SOD1^G93A with C57BL/6 background (B6.Cg‐Tg(SOD1*G93A)1Gur/J) (RRID: IMSR_JAX:004435) were prepared for in vivo experiments using our published protocol with determination of the times for disease onset and end-stage were previously[25],[61]. […] The diet was replenished three times per week, and the mice had free access to their assigned diet and deionized water. The body weight of the mice and clasping signs were measured every week. Disease onset was determined by the time when the mice reached maximum body weight. The clasping signs were scored as 0 (no sign), 1 (one hindlimb partially retracted), 2 (both hindlimb partially retracted), or 3 (hindlimbs were entirely retracted), as described elsewhere[62],[63]. Rotarod tests were performed every two weeks, as previously described[61],[62]. Briefly, the mice were placed on the rotating rods, which accelerated from 0 to 30 rpm for 5 min with 15 min interval between each trial. The longest latencies to fall from the rotating rods out of three trials were scored. All behavioral experiments were conducted under non-blinded conditions. The mice were housed in the specific pathogen-free (SPF) environment (with a 12 h light‐dark cycle at 23 ± 1 °C and 50 ± 5% humidity) and treated in compliance with the requirements of the Animal Care and Use Committee, Nagoya University. The experiments using genetically modified mice were approved by the Animal Care and Use Committee and the recombinant DNA experiment committee of Nagoya University. All methods used for transgenic mice experiments were in accordance with relevant guidelines and regulations and all methods are reported in accordance with ARRIVE guideline.

A4V SOD1 = A4V SOD1 (Homo sapiens, UniProt P00441, A5V)
Experimental: as §1

[7] = Oral bioavailability and pharmacokinetic study in mice; assay type: in vivo, female CD1 mice
Experimental: The analysis is based on free measurable amounts of free drug in the plasma and thus is likely to be an underestimation of active drug compound due to the extensive serum albumin binding seen with drugs in this class.
F = (AUCINF-PO/mean AUCINF-IV)/(DosePO/DoseIV) × 100%, AUClast was alternatively used for F calculation when AUCINF was not available or beyond 120% of AUClast. The compound were formulated in 5%DMAC + 95% (20% HP-beta-CD in saline) at 0.2 mg/mL for IV dosing and CMC (0.5%), benzyl alcohol (0.5%), Tween 80 (0.4%) and NaCl (0.9%) at 3 mg/mL for PO dosing, respectively. PK parameters were estimated by non-compartmental model using WinNonlin 8.2.

[8] = tested on: SOD1^G93A transgenic mice; set-up: method as in PMID 32862101; conditions: cited from earlier work
[9] = tested on: H4 cells expressing wild-type SOD1; test: ATP bioluminescent (CellTiter-Glo) cell viability assay, H4 cells expressing wild-type SOD1; conditions: wild-type SOD1, dose-response 2.5 to 100 μM, Supplementary Fig. S1
Experimental: as §1, with “To avoid the interference of the antioxidant compounds (ebselen and its analogues) with the luciferase activity in the presence of oxygen, the drugs containing media was replaced with a fresh medium prior to the addition of the reagent.” left out

[10] = female, CD1, mouse, in vivo, iv, 1 mg/kg
[11] = female, CD1, mouse, in vivo, po, 30 mg/kg

T2 sequence (P00441 whole entry H47R): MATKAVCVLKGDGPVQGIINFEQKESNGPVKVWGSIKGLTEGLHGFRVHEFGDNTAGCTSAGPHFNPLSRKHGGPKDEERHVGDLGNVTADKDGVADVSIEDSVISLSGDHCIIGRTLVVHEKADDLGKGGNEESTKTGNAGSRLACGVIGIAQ
T2 sequence (P00441 2-154 H47R limits assumed): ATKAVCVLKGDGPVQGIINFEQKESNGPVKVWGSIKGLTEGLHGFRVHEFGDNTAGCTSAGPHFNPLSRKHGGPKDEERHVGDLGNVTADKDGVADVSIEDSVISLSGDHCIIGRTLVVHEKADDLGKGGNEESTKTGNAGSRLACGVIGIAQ
A4V SOD1, sequence (P00441 whole entry A5V): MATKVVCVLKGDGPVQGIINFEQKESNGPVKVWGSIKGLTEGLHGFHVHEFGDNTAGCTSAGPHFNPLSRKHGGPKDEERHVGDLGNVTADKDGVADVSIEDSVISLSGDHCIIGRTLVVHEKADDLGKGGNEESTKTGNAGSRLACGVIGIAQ
A4V SOD1, sequence (P00441 2-154 A5V limits assumed): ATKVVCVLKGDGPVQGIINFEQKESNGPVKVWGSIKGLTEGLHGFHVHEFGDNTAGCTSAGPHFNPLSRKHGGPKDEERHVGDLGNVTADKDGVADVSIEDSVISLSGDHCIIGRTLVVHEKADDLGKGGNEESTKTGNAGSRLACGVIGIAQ
T3 sequence (P00441 whole entry D91A): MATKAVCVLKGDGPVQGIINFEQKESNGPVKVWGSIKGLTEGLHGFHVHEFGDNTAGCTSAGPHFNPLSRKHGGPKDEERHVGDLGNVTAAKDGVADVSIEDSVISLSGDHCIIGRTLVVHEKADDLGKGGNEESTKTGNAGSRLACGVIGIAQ
T3 sequence (P00441 2-154 D91A limits assumed): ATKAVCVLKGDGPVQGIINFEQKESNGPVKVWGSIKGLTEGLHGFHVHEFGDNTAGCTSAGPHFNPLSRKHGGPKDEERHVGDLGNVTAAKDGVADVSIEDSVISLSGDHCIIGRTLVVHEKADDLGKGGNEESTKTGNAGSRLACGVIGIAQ
T1 sequence (P00441 whole entry G94A): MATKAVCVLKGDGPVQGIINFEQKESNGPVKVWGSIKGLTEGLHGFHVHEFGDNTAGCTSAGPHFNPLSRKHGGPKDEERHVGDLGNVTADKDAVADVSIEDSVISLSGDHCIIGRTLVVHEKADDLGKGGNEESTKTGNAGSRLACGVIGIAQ
T1 sequence (P00441 2-154 G94A limits assumed): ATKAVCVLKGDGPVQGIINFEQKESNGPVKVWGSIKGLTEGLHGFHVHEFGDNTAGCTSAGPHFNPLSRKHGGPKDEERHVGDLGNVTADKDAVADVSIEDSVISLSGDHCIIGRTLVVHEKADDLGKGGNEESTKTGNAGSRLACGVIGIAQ

For CC1=NN(c2ccccc2)C(=O)C1 [edaravone], the “insoluble SOD1 species” value ([1]; Fig. 6I) was “tendency to reduce insoluble SOD1”, the poly-ubiquitinated proteins [1] was “little effect” and the “insoluble p62” value ([1]; Fig. 6K) was “little effect”. For the same compound, the cell survival [2] was “increased the cell survival” and the cell survival [3] was “increased the cell survival”.

In the case of COc1ccc(Cn2[se]c3ccccc3c2=O)cn1 [MR6-26-2], the “cells with more than 5 inclusions per cell” value (G93A SOD1; G93A SOD1, 50 µM, 24 h) is reported as “no cells were detected”, the “reduction of aggregates / aggregation propensity” value (G93A SOD1; G93A, 50 µM) is reported as “most effective in reducing the aggregates” and the “reduction of aggregates / aggregation propensity” value (H46R SOD1) is reported as “most effective in reducing the aggregates”. For the same compound, the “cells with more than 5 inclusions per cell” value (D90A SOD1; D90A SOD1, 50 µM, 24 h) was “no cells were detected”, the “reduction of aggregates / aggregation propensity” value (D90A SOD1) was “most effective in reducing the aggregates” and the poly-ubiquitinated proteins [1] was “reduced”. The cell survival [2] was “increased the cell survival”, the “concentration up to which high level of cells viability is seen” value (“concentration up to which high level” for short) [2] was “up to 25 µM” and the “dosage restoring wild-type level viability, lower than edaravone” value [4] was 100 -fold. For the same compound, the “p62- and poly-ubiquitin-doubly positive inclusions in motor neurons” value ([5]; 120-days-old SOD1G93A lumbar spinal cord) was “substantially reduced”, the “SOD1 oligomers with aberrant disulfide bonds in spinal cords” value ([5]; SOD1G93A mice, 120 days old, non-reducing SDS-PAGE) was “sharply decreased” and the “misfolded SOD1 (C4F6 antibody) in lumbar spinal cord” value ([5]; early symptomatic SOD1G93A mice) was “reduced the accumulation of misfolded SOD1”. The “motor neuron degeneration (ChAT-positive motor neurons)” value ([5]; early symptomatic SOD1G93A mice, Fig. 5J) was “without affecting the motor neuron degeneration”, the “level of poly-ubiquitinated proteins in spinal cords” value ([5]; immunoblotting, insoluble fractions, 120 days old) was “decreased” and the “insoluble SOD1 proteins in spinal cords” value ([5]; mouse, in vivo) was “sharply decreased”. The cell survival [3] was “increased the cell survival”, the “concentration up to which high level” value ([3]; dose-response 2.5 to 100 μM) was “up to 25 µM” and the “concentration reviving the cells to maximum level” value ([3]; dose-response 2.5 to 100 μM, Supplementary Fig. S1) was 12.5 µM. The clasping scores ([6]; SOD1G93A mice, Fig. 5C) was “improvement”, the survival time ([6]; SOD1G93A mice, chronic oral) was “did not show a significant extension” and the “slowing of disease onset” value ([6]; SOD1G93A mice, oral) was “approximately 15 days”. For the same compound, the body weights ([6]; Supplementary Fig. S4) was “unaffected”, the rotarod performance ([6]; Supplementary Fig. S4) was “unaffected” and the “disease onset (mean ± SD)” value [6] was 121.1 ± 7.2 days. The “cells displaying more than 5 inclusions per cell” value (A4V SOD1; A4V SOD1, 50 µM, 24 h, 75% in untreated cells) was 29%, the “reduction of aggregates / aggregation propensity” value (A4V SOD1; A4V, 50 µM) was “most effective in reducing the aggregates” and the “drug concentration found to reduce the aggregates effectively” value (A4V SOD1; A4V, doses 25, 50 and 100 µM, Fig. 3A) was 50 µM. The AUC(0-inf) [7, 10] was 203 ng·h/mL, the AUC(0-t) [7, 10] was 197 ng·h/mL and the MRT inf [7, 10] was 16 min. The Vd [7, 10] was 1.37 L/kg, the clearance [7, 10] was 85.7 mL/min/kg and the AUC(0-inf) [7, 11] was 1790 ng·h/mL. It also gave an AUC(0-t) [7, 11] of 1730 ng·h/mL, a CL [7, 11] of 0.25 L/h/kg and an MRTINF [7, 11] of 29.5 h. For the same compound, the bioavailability [7, 11] was 29%, the half-life [7, 11] was 90 min and the half-life ([7]; female, CD1, mouse, plasma, IV dose at 1 mg/kg, mean, read-out: T1/2 (converted)) was 20.8 min. For the same compound, the half-life ([7]; female, CD1, mouse, plasma, oral dose of 30 mg/kg, mean, read-out: T1/2 (converted)) was 81 min and the clearance ([7]; mouse, in vivo) was “fast clearance”.

With Nc1nc2ccc(OC(F)(F)F)cc2s1 [riluzole] the effect on proteostasis [1] was “no effect on proteostasis”.

For O=c1c2ccccc2[se]n1-c1ccccc1 [ebselen, 2-phenyl-1,2-benzisoselenazol-3(2H)-one], the “reduction of aggregates / aggregation propensity” value (H46R SOD1) was “least effective”, the “reduction of aggregates / aggregation propensity” value (D90A SOD1) was “least effective” and the cell survival [2] was “increased the cell survival”. For the same compound, the “concentration up to which high level” value [2] was “up to 25 µM”, the cell survival [3] was “increased the cell survival” and the “concentration up to which high level” value ([3]; dose-response 2.5 to 100 μM) was “up to 25 µM”. For the same compound, the “neuroprotection in SOD1G93A mice by delaying disease onset” value [8] was “partial neuroprotection”.

With O=c1c2ccccc2[se]n1Cc1cccnc1 [MR6-8-2] the “reduction of aggregates / aggregation propensity” value (H46R SOD1) was “least effective”, the “concentrations giving a sharp fall of viable cells (toxicity)” value [9] was “above 25 µM” and the “reduction of aggregates / aggregation propensity” value (D90A SOD1) was “least effective”. The cell survival [2] was “increased the cell survival”, the “dosage restoring wild-type level viability, lower than edaravone” value [4] was 100 -fold and the cell survival [3] was “increased the cell survival”. The “disease onset (mean ± SD)” value [6] was 115.5 ± 9.2 days.
